Drawing on patent US20100029619A1, “FUSED HETEROCYCLIC COMPOUND” (TAKEDA PHARMACEUTICAL COMPANY LIMTED, priority 2006, published 2010), this text covers melting point for 15 molecules.

As for `CC(C)(C)c1ccc(C(=O)Nc2cn3nc(NC4CCCCC4)ccc3n2)cc1` [Example 164, 4-tert-butyl-N-[6-(cyclohexylamino)imidazo[1,2-b]pyridazin-2-yl]benzamide], the melting point (as a rule, the temperature, or range, at which the solid turns liquid) is 296 to 297 °C. The result for `CC(C)(C(=O)O)c1ccc(C(=O)Nc2cn3c4c(ccc3n2)OCC4)cc1` [Example 16, 2-[4-(1,2-dihydrofuro[2,3-e]imidazo[1,2-a]pyridin-7-ylcarbamoyl)phenyl]-2-methylpropanoic acid] reads 293 to 295 °C; that for `CC(C)c1ccc(C(=O)Nc2cn3cc(-n4ccnc4)ccc3n2)cc1` [Example 97, N-[6-(1H-imidazol-1-yl)imidazo[1,2-a]pyridin-2-yl]-4-isopropylbenzamide], 291 to 293 °C; that for `CC(C)(C)c1ccc(C(=O)Nc2cn3cc(C(F)(F)F)ccc3n2)cc1` [Example 452, 4-tert-butyl-N-[6-(trifluoromethyl)imidazo[1,2-a]pyridin-2-yl]benzamide], 234 to 235 °C. The figure for `CC(C)(C)c1ccc(C(=O)Nc2cn3nc(-c4cn[nH]c4)ccc3n2)cc1` [Example 174, 4-tert-butyl-N-[6-(1H-pyrazol-4-yl)imidazo[1,2-b]pyridazin-2-yl]benzamide] is 358 to 362 °C (dec.); for `CC(C)(C)c1ccc(C(=O)Nc2cn3nc(-n4cnc(CO)c4)ccc3n2)cc1` [Example 145, 4-tert-butyl-N-{6-[4-(hydroxymethyl)-1H-imidazol-1-yl]imidazo[1,2-b]pyridazin-2-yl}benzamide] it is 298 to 301 °C; for `COC(=O)C(C)(C)c1ccc(C(=O)Nc2cn3c4c(ccc3n2)OCC4)cc1` [Example 15, methyl 2-[4-(1,2-dihydrofuro[2,3-e]imidazo[1,2-a]pyridin-7-ylcarbamoyl)phenyl]-2-methylpropanoate] it is 235 to 237 °C. The figure for `COC(=O)C(C)(C)c1ccc(C(=O)Nc2cn3cc(I)ccc3n2)cc1` [Example 23, methyl 2-{4-[(6-iodoimidazo[1,2-a]pyridin-2-yl)carbamoyl]phenyl}-2-methylpropanoate] is 234 to 235 °C. With `Cc1cn(-c2ccc3nc(NC(=O)c4ccc(C(C)(C)C)cc4)cn3n2)c(C)n1` [Example 143, 4-tert-butyl-N-[6-(2,4-dimethyl-1H-imidazol-1-yl)imidazo[1,2-b]pyridazin-2-yl]benzamide], the melting point fell in the range of 254 to 255 °C.

Consider `O=C(Nc1cn2cc(Cl)ccc2n1)c1ccc(C2(C(=O)O)CCCC2)cc1` [Example 191, 1-{4-[(6-chloroimidazo[1,2-a]pyridin-2-yl)carbamoyl]phenyl}cyclopentanecarboxylic acid], for which the melting point is 313 °C (dec.). For `CCNC(=O)C(C)(C)c1ccc(C(=O)Nc2cn3cc(Cl)ccc3n2)cc1` [Example 127, N-(6-chloroimidazo[1,2-a]pyridin-2-yl)-4-[2-(ethylamino)-1,1-dimethyl-2-oxoethyl]benzamide], the melting point is 228 to 230 °C. In turn, `CC(C)(c1ccc(C(=O)Nc2cn3cc(Cl)ccc3n2)cc1)c1noc(=O)[nH]1` [Example 40, N-(6-chloroimidazo[1,2-a]pyridin-2-yl)-4-[1-methyl-1-(5-oxo-4,5-dihydro-1,2,4-oxadiazol-3-yl)ethyl]benzamide] returned a melting point of 310 to 312 °C. As for `CC(C)(C)c1ccc(C(=O)Nc2cn3nc(NC4CCNC4)ccc3n2)cc1` (stereo not drawn) [Example 170, 4-tert-butyl-N-{6-[(pyrrolidin-3-yl)amino]imidazo[1,2-b]pyridazin-2-yl}benzamide], the melting point lay within 264 to 265 °C. Regarding `CC(C)(C)c1ccc(C(=O)Nc2cn3nc(NC4CC4)ccc3n2)cc1` [Example 166, 4-tert-butyl-N-[6-(cyclopropylamino)imidazo[1,2-b]pyridazin-2-yl]benzamide], the melting point lay within 274 to 275 °C. Consider `CC(C)(CCO)c1ccc(C(=O)Nc2cn3cc(Cl)ccc3n2)cc1` [Example 467, N-(6-chloroimidazo[1,2-a]pyridin-2-yl)-4-(3-hydroxy-1,1-dimethylpropyl)benzamide], for which the melting point lay in the range of 182 to 184 °C.
